Measured values taken from patent US20050025839A1, “Formulation approach to enhance transporter-mediated drug uptake” (priority 2003, published 2005).

Tests used:
hASBT = target: T1, hASBT (Homo sapiens, UniProt Q12908); assay: Sodium-enhanced uptake into COS-hASBT cells (FIG. 1); type: cell-based; conditions: with vs without sodium
T1 construct: expressed in transfected cells; host or cells: COS cells (COS-hASBT)
T1 sequence (Q12908 1-348): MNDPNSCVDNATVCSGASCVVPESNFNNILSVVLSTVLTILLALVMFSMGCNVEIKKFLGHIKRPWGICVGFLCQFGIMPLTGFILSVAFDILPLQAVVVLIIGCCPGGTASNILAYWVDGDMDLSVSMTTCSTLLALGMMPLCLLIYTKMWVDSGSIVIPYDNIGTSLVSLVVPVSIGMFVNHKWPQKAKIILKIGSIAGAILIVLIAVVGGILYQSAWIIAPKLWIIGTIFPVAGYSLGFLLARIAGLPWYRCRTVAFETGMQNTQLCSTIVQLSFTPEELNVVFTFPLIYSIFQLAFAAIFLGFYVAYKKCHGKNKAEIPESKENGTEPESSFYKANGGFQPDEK
Source text: FIG. 1 illustrates how this invention provides for improved uptake of active agent, and specifically the impact of sodium on the uptake of an acyclovir prodrug that utilizes the hASBT transporter, which is a sodium-dependent transporter. […] COS-hASBT cells express hASBT. Acyclovir valylchenodeoxycholate is a prodrug of acyclovir, where acyclovir valylchenodeoxycholate is a substrate for hASBT. Uptake from acyclovir valylchenodeoxycholate prodrug and uptake from acyclovir are shown as closed bar and open bar, respectively. […] Error bars represent SEM's.

[1] = prodrug vs acyclovir, refs (9,10); cited from earlier work

| Structure (SMILES) | Effect of sodium on uptake into COS-hASBT cells (hASBT) | in vivo oral acyclovir bioavailability [1] |
| --- | --- | --- |
| CC(C)[C@H](NC(=O)CC[C@@H](C)[C@H]1CC[C@H]2[C@@H]3[C@H](O)C[C@@H]4C[C@H](O)CC[C@]4(C)[C@H]3CC[C@]12C)C(=O)OCCOCn1cnc2c(=O)[nH]c(N)nc21 [acyclovir valylchenodeoxycholate] | enhanced by sodium | enhance in vivo oral acyclovir bioavailability |
| Nc1nc2c(ncn2COCCO)c(=O)[nH]1 [acyclovir, reference compound] | did not enhance |  |
